Test results as given in US12247028B2, “Azabicyclo and diazepine derivatives” (Alcon Inc., priority 2017, dated 2025).
Read-outs that look alike come from different tables or passages of the source.

What was measured:
[1] = target: T1, Human muscarinic receptor M5 (Homo sapiens, UniProt P08912); test: Human muscarinic receptor assay M5, [3H]4-DAMP binding
T1 construct: host or cells: cell membrane homogenates
T1 sequence (P08912 1-532): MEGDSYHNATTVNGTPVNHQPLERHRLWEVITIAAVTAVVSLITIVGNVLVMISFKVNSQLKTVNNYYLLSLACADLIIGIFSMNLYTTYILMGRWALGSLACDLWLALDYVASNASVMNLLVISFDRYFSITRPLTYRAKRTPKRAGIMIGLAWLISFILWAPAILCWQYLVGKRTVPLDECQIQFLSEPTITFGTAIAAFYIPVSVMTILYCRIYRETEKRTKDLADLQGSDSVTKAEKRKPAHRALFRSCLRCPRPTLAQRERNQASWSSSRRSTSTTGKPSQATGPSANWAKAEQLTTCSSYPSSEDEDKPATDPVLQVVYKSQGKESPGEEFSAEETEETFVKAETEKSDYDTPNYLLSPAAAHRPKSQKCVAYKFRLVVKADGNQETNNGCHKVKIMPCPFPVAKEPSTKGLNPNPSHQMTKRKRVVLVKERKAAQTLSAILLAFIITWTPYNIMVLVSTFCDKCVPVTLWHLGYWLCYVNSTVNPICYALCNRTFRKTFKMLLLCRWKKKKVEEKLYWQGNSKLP
Description: (§1) Human Muscarinic Receptor Assay
(§2) Cell membrane homogenates (15 μg protein) are incubated for 60 min at 22° C. with 0.3 nM [3H]4-DAMP in the absence or presence of the test compound in a buffer containing 10 mM Tris-HCl (pH 7.4) and 2 mM EDTA. Nonspecific binding is determined in the presence of 1 μM atropine. Following incubation, the samples are filtered rapidly under vacuum through glass fiber filters (GF/B, Packard) presoaked with 0.3% PEI and rinsed several times with ice-cold 50 mM Tris-HCl using a 96-sample cell harvester (Unifilter, Packard). The filters are dried then counted for radioactivity in a scintillation counter (Topcount, Packard) using a scintillation cocktail (Microscint 0, Packard). The results are expressed as a percent inhibition of the control radioligand specific binding. The standard reference compound is 4-DAMP, which is tested in each experiment at several concentrations to obtain a competition curve from which its Ki and IC50 are calculated.

[2] = target: T2, Human muscarinic receptor M3 (Homo sapiens, UniProt P20309); test: Human muscarinic receptor assay M3, [3H]4-DAMP binding; conditions: for Ki: 0.2 nM [3H]4-DAMP, cell membrane homogenates
T2 construct: host or cells: cell membrane homogenates
T2 sequence (P20309 whole entry): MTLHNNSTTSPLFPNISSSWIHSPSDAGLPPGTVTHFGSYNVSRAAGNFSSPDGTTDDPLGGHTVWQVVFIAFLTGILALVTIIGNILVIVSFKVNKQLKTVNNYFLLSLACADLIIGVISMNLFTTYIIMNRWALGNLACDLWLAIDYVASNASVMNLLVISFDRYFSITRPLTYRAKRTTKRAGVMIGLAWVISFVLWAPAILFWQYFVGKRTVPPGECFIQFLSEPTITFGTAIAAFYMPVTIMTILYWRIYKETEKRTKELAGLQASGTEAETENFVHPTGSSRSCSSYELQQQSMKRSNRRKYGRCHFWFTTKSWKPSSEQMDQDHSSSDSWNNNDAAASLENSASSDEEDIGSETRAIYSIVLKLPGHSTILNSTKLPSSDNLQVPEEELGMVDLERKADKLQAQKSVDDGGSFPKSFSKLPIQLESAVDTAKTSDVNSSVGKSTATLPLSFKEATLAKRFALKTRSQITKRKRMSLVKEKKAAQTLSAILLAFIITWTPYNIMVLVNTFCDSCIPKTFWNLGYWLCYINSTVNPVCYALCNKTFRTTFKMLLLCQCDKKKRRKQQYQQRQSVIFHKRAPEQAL
Description: as §1
as §2, with “membrane homogenates (8 μg protein)” for “membrane homogenates (15 μg protein)”, “C. with 0.2 nM [3H]4-DAMP” for “C. with 0.3 nM [3H]4-DAMP”

[3] = target: T3, Human muscarinic receptor M2 (Homo sapiens, UniProt P08172); test: Human muscarinic receptor assay M2, [3H]AF-DX 384 binding; conditions: for inhibition at 1 µM: read-out: percent inhibition of the control radioligand specific binding, M2
T3 construct: host or cells: cell membrane homogenates
T3 sequence (P08172 1-466): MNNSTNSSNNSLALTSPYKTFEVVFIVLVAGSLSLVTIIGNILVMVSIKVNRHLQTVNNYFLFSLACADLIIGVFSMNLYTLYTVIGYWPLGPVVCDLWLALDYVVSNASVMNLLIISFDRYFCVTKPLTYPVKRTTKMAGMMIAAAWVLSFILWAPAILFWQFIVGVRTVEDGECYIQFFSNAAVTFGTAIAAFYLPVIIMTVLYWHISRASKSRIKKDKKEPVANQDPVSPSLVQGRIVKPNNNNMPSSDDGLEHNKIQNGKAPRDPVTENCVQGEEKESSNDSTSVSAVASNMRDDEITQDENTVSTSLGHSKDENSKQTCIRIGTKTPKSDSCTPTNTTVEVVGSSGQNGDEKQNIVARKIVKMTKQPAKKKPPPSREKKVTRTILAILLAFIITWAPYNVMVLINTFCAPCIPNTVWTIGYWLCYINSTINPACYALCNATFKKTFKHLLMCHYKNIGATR
Description: as §1
(§3) Cell membrane homogenates (60 μg protein) are incubated for 60 min at 22° C. with 2 nM [3H]AF-DX 384 in the absence or presence of the test compound in a buffer containing 50 mM Tris-HCl (pH 7.4), 120 mM NaCl, 5 mM KCl, 5 mM MgCl2 and 1 mM EDTA. Nonspecific binding is determined in the presence of 1 μM atropine. Following incubation, the samples are filtered rapidly under vacuum through glass fiber filters (GF/B, Packard) presoaked with 0.3% PEI and rinsed several times with ice-cold 50 mM Tris-HCl using a 96-sample cell harvester (Unifilter, Packard). The filters are dried then counted for radioactivity in a scintillation counter (Topcount, Packard) using a scintillation cocktail (Microscint 0, Packard). The results are expressed as a percent inhibition of the control radioligand specific binding. The standard reference compound is methoctramine, which is tested in each experiment at several concentrations to obtain a competition curve from which its Ki and IC50 are calculated.

[4] = target: T4, Human muscarinic receptor M1 (Homo sapiens, UniProt P11229); test: Human muscarinic receptor assay M1, [3H]pirenzepine binding; conditions: 2 nM [3H]pirenzepine, cell membrane homogenates
T4 construct: host or cells: cell membrane homogenates
T4 sequence (P11229 1-460): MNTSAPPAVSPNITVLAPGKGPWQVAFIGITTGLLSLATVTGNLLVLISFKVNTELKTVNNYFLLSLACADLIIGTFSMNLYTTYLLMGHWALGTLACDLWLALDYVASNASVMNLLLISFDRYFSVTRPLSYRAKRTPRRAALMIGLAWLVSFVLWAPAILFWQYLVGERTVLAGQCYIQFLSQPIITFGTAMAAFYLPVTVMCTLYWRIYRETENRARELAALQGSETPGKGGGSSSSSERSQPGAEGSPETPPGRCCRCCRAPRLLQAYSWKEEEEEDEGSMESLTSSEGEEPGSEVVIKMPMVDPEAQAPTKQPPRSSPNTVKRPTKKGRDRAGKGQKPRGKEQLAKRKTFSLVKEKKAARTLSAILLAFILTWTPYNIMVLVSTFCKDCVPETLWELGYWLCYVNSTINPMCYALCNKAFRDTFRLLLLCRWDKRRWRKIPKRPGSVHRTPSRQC
Description: as §1
as §3, with “(45” for “(60”, “[3H]pirenzepine” for “[3H]AF-DX 384”, “pirenzepine,” for “methoctramine,”

[5] = target: T5, Human muscarinic receptor M4 (Homo sapiens, UniProt P08173); test: Human muscarinic receptor assay M4, [3H]4-DAMP binding
T5 construct: host or cells: cell membrane homogenates
T5 sequence (P08173 1-479): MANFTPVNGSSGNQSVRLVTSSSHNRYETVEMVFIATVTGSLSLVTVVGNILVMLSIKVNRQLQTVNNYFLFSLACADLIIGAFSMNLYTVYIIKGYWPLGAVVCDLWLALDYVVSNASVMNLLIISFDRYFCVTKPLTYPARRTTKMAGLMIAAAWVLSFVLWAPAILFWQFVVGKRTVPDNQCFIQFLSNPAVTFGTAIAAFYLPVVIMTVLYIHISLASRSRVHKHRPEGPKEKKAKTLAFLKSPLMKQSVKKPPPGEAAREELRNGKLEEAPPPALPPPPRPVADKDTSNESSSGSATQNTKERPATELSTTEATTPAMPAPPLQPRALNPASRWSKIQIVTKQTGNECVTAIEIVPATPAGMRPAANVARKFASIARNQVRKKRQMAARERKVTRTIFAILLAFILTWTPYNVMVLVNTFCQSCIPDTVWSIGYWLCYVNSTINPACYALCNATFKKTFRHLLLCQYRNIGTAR
Description: as §1
as §2, with “membrane homogenates (16 μg protein)” for “membrane homogenates (15 μg protein)”, “C. with 0.2 nM [3H]4-DAMP” for “C. with 0.3 nM [3H]4-DAMP”

[6] = topical 1% drop; cited from earlier work
[7] = 0.3 nM [3H]4-DAMP, cell membrane homogenates, read-out: Ki M5

CN1C2CCC1CC(OC(=O)C(F)(CO)c1ccccc1)C2 (stereo not shown)
Ki [1]: 0.71 nM | Ki [2]: 2.9 nM | Ki [3]: 15 nM | Ki [4]: 3.5 nM | Ki [5]: 0.48 nM

CN1C2CCC1CC(OC(=O)C(C)(CO)c1ccccc1)C2 (stereo not shown)
Ki [1]: 0.68 nM | Ki [2]: 2 nM | Ki [3]: 11 nM | Ki [4]: 3.1 nM | Ki [5]: 0.58 nM

COCC(C)(C(=O)OC1CC2CCC(C1)N2C)c1ccccc1 (stereo not shown)
Ki [1]: 8.5 nM | Ki [2]: 13 nM | Ki [3]: 72 nM | Ki [4]: 19 nM | Ki [5]: 7.4 nM

CN1C2CCC1CC(OC(=O)C(C)(CF)c1ccccc1)C2 (stereo not shown)
Ki [1]: 7.2 nM | Ki [2]: 14 nM | Ki [3]: 110 nM | Ki [4]: 27 nM | Ki [5]: 5.8 nM

CN1C2CCC1CC(OC(=O)C(C)(CO)c1cccs1)C2 (stereo not shown)
Ki [1]: 0.71 nM | Ki [2]: 0.78 nM | Ki [3]: 7.9 nM | Ki [4]: 2.5 nM | Ki [5]: 0.39 nM

CN1C2CCC1CC(NC(=O)C(C)(CO)c1ccccc1)C2 (stereo not shown)
Ki [1]: 52 nM | Ki [2]: 150 nM | inhibition at 1 µM [3]: < 50% | Ki [4]: 230 nM | Ki [5]: 83 nM

CCC(CO)(C(=O)OC1CC2CCC(C1)N2C)c1ccccc1 (stereo not shown)
Ki [1]: 1.1 nM | Ki [2]: 1.3 nM | Ki [3]: 35 nM | Ki [4]: 4.4 nM | Ki [5]: 0.71 nM

CN1C2CCC1CC(OC(=O)C(CO)(CC1CC1)c1ccccc1)C2 (stereo not shown)
Ki [1]: 0.99 nM | Ki [2]: 1.3 nM | Ki [3]: 39 nM | Ki [4]: 3.4 nM | Ki [5]: 0.57 nM

CN1C2CCC1CC(OC(=O)C(CO)(CC(F)(F)F)c1ccccc1)C2 (stereo not shown)
Ki [1]: 1.9 nM | Ki [2]: 2 nM | Ki ([3]; 2 nM [3H]AF-DX 384, cell membrane homogenates, read-out: Ki M2): 240 nM | Ki [4]: 8.2 nM | Ki [5]: 1.7 nM

CN1C2CCC1CC(OC(=O)C(CO)(CO)c1ccccc1)C2 (stereo not shown)
Ki [1]: 4.5 nM | Ki [2]: 4.1 nM | Ki [3]: 54 nM | Ki [4]: 17 nM | Ki [5]: 3 nM

CN1C2CCC1CC(OC(=O)C(CO)(Cc1ccccc1)c1ccccc1)C2 (stereo not shown)
Ki [1, 7]: 280 nM | inhibition at 1 µM ([2]; @ 1 μM, read-out: percent inhibition of the control radioligand specific binding, M3): < 50% | inhibition at 1 µM [3]: < 50% | Ki [4]: 600 nM | Ki ([5]; 0.2 nM [3H]4-DAMP, cell membrane homogenates, read-out: Ki M4): 230 nM

CN1C2CCC1CC(OC(=O)C(CO)(Cc1ccc(F)cc1)c1ccccc1)C2 (stereo not shown)
Ki [1]: 160 nM | Ki [2]: 310 nM | inhibition at 1 µM [3]: < 50% | Ki [4]: 300 nM | Ki [5]: 200 nM

COc1ccc(CC(CO)(C(=O)OC2CC3CCC(C2)N3C)c2ccccc2)cc1 (stereo not shown)
Ki [1, 7]: 320 nM | Ki [2]: 610 nM | inhibition at 1 µM [3]: < 50% | Ki [4]: 570 nM | inhibition at 1 µM ([5]; read-out: percent inhibition of the control radioligand specific binding, M4): < 50%

CN1[C@@H]2CC[C@H]1C[C@@H](OC(=O)C(CO)c1ccccc1)C2 (stereo partly shown) [atropine]
efficacy in the treatment of myopia [6]: effective | side effects [6]: numerous side effects were reported, including mydriasis (dilation of the pupil) and blurring of near vision due to cycloplegia
